Calls of active or inactive are those of the source. No cut-off for these calls is given here.
Legend:
Mus musculus [1] = assay: Locomotor activity in CD1 mouse assessed as stimulation at 10 mg/kg, ip after 2 hrs relative to control; format: functional; details: route intraperitoneal
Mus musculus [2] = assay: Activity in CD1 mouse assessed as circling at 100 mg/kg, ip after 4 hrs; format: functional, organism-based; parameters: dose 100 mg/kg
Mus musculus [3] = assay: Locomotor activity in CD1 mouse assessed as stimulation at 10 mg/kg, ip after 3 hrs relative to control; format: functional; details: route intraperitoneal
Mus musculus [4] = assay: Activity in CD1 mouse assessed as stimulation at 1 mg/kg, ip after 4 hrs; format: functional, organism-based; parameters: dose 1 mg/kg
Rattus norvegicus [5] = assay: Drug discrimination effect in CD Albino rat assessed as percent of rat choosing cocaine lever at 1 mg/kg, ip; format: functional; details: route intraperitoneal
Mus musculus [6] = assay: Activity in CD1 mouse assessed as hyperactivity at 10 mg/kg, ip after 4 hrs; format: functional, organism-based; parameters: dose 10 mg/kg
Mus musculus [7] = assay: Locomotor activity in CD1 mouse assessed as stimulation at 30 mg/kg, ip after 2 hrs relative to control; format: functional; details: route intraperitoneal
Mus musculus [8] = assay: Activity in CD1 mouse assessed as stereotypy at 10 mg/kg, ip after 4 hrs; format: functional, organism-based; parameters: dose 10 mg/kg
Mus musculus [9] = assay: Locomotor activity in CD1 mouse assessed as stimulation at 1 mg/kg, ip after 2 hrs relative to control; format: functional; details: route intraperitoneal
Mus musculus [10] = assay: Locomotor activity in CD1 mouse assessed as stimulation at 1 mg/kg, ip after 1 hr relative to control; format: functional; details: route intraperitoneal
Mus musculus [11] = assay: Locomotor activity in CD1 mouse assessed as stimulation at 10 mg/kg, ip after 1 hr relative to control; format: functional; details: route intraperitoneal
[12] = target: Sodium-dependent dopamine transporter (Homo sapiens, UniProt Q01959); assay: Displacement of [3H]WIN-35428 from DAT
Sequence of Sodium-dependent dopamine transporter (Q01959 whole entry): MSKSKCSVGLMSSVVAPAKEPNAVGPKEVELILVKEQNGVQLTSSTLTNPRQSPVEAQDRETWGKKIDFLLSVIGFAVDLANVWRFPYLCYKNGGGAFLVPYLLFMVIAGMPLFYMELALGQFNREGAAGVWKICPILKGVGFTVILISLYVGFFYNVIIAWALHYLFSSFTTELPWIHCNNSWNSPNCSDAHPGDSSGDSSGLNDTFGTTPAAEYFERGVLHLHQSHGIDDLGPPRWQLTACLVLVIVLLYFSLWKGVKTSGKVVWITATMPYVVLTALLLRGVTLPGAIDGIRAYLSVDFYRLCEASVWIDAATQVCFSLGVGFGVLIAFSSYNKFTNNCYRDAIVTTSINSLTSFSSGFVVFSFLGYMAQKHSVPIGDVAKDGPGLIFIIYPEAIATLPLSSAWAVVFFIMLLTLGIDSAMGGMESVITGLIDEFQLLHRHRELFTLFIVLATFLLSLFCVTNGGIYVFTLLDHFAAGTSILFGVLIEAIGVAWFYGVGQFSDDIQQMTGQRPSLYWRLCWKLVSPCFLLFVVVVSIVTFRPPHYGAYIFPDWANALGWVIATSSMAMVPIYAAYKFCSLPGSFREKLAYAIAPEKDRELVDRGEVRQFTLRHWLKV

Rattus norvegicus [13] = assay: Drug discrimination effect in CD Albino rat assessed as percent of rat choosing cocaine lever at 3 mg/kg, ip; format: functional; details: route intraperitoneal
Mus musculus [14] = assay: Locomotor activity in CD1 mouse assessed as stimulation at 10 mg/kg, ip after 4 hrs relative to control; format: functional; details: route intraperitoneal
Mus musculus [15] = assay: Locomotor activity in CD1 mouse assessed as stimulation at 1 mg/kg, ip after 4 hrs relative to control; format: functional; details: route intraperitoneal
Mus musculus [16] = assay: Activity in CD1 mouse assessed as stereotypy at 100 mg/kg, ip after 4 hrs; format: functional, organism-based; parameters: dose 100 mg/kg
Mus musculus [17] = assay: Locomotor activity in CD1 mouse assessed as stimulation at 30 mg/kg, ip after 3 hrs relative to control; format: functional; details: route intraperitoneal
Mus musculus [18] = assay: Locomotor activity in CD1 mouse assessed as stimulation at 3 mg/kg, ip after 2 hrs relative to control; format: functional; details: route intraperitoneal
Mus musculus [19] = assay: Locomotor activity in ip dosed CD1 mouse in peak hour; format: functional
Rattus norvegicus [20] = assay: Cocaine discrimination in ip dosed CD Albino rat; format: functional
Mus musculus [21] = assay: Locomotor activity in CD1 mouse assessed as stimulation at 30 mg/kg, ip after 4 hrs relative to control; format: functional; details: route intraperitoneal
Mus musculus [22] = assay: Locomotor activity in CD1 mouse assessed as stimulation at 3 mg/kg, ip after 1 hr relative to control; format: functional; details: route intraperitoneal
Mus musculus [23] = assay: Locomotor activity in CD1 mouse assessed as stimulation at 1 mg/kg, ip after 3 hrs relative to control; format: functional; details: route intraperitoneal
Mus musculus [24] = assay: Locomotor activity in CD1 mouse assessed as stimulation at 3 mg/kg, ip after 3 hrs relative to control; format: functional; details: route intraperitoneal
Mus musculus [25] = assay: Locomotor activity in CD1 mouse assessed as stimulation at 30 mg/kg, ip after 1 hr relative to control; format: functional; details: route intraperitoneal
[26] = target: Sodium-dependent serotonin transporter (Homo sapiens, UniProt P31645)
Sequence of Sodium-dependent serotonin transporter (P31645 whole entry): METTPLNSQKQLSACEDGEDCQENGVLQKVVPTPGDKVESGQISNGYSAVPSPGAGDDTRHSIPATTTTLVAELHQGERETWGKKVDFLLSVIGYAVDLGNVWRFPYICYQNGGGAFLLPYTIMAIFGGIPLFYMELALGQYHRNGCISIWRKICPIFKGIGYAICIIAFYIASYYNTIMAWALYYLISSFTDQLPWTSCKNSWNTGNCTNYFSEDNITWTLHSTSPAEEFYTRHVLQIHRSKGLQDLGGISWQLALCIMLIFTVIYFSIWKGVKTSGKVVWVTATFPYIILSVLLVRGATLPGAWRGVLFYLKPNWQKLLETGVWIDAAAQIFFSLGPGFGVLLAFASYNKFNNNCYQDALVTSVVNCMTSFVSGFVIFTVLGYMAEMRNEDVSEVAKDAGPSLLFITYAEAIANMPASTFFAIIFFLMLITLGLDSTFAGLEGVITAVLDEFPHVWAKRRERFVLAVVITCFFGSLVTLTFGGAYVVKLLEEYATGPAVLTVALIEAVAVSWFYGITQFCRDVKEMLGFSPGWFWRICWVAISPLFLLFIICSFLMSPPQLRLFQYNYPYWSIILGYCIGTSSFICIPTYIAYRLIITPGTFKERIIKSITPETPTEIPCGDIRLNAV
Description: Displacement of [3H]paroxetine from 5HTT

Mus musculus [27] = assay: Locomotor activity in CD1 mouse assessed as stimulation at 3 mg/kg, ip after 4 hrs relative to control; format: functional; details: route intraperitoneal
Rattus norvegicus [28] = assay: Drug discrimination effect in CD Albino rat assessed as percent of rat choosing cocaine lever at 1.7 mg/kg, ip; format: functional; details: route intraperitoneal
Rattus norvegicus [29] = assay: Drug discrimination effect in CD Albino rat assessed as percent of rat choosing cocaine lever at 5.6 mg/kg, ip; format: functional; details: route intraperitoneal
Rattus norvegicus [30] = assay: Drug discrimination effect in CD Albino rat assessed as percent of rat choosing cocaine lever at 0.17 mg/kg, ip; format: functional; details: route intraperitoneal
Mus musculus [31] = assay: Locomotor activity in CD1 mouse assessed as stimulation at 0.3 mg/kg, ip after 4 hrs relative to control; format: functional; details: route intraperitoneal
Mus musculus [32] = assay: Locomotor activity in CD1 mouse assessed as stimulation at 0.03 mg/kg, ip after 1 hr relative to control; format: functional; details: route intraperitoneal
Mus musculus [33] = assay: Activity in CD1 mouse assessed as circling at 10 mg/kg, ip after 4 hrs; format: functional, organism-based; parameters: dose 10 mg/kg
Mus musculus [34] = assay: Activity in CD1 mouse assessed as stereotypy at 1 mg/kg, ip after 4 hrs; format: functional, organism-based; parameters: dose 1 mg/kg
Mus musculus [35] = assay: Locomotor activity in CD1 mouse assessed as stimulation at 0.3 mg/kg, ip after 3 hrs relative to control; format: functional; details: route intraperitoneal
Mus musculus [36] = assay: Locomotor activity in CD1 mouse assessed as stimulation at 0.1 mg/kg, ip after 2 hrs relative to control; format: functional; details: route intraperitoneal
Mus musculus [37] = assay: Locomotor activity in CD1 mouse assessed as stimulation at 0.3 mg/kg, ip after 1 hr relative to control; format: functional; details: route intraperitoneal
Mus musculus [38] = assay: Locomotor activity in CD1 mouse assessed as stimulation at 0.1 mg/kg, ip after 3 hrs relative to control; format: functional; details: route intraperitoneal
Mus musculus [39] = assay: Locomotor activity in CD1 mouse assessed as stimulation at 0.03 mg/kg, ip after 4 hrs relative to control; format: functional; details: route intraperitoneal
Rattus norvegicus [40] = assay: Drug discrimination effect in CD Albino rat assessed as percent of rat choosing cocaine lever at 0.3 mg/kg, ip; format: functional; details: route intraperitoneal
Mus musculus [41] = assay: Locomotor activity in CD1 mouse assessed as stimulation at 0.03 mg/kg, ip after 3 hrs relative to control; format: functional; details: route intraperitoneal
Rattus norvegicus [42] = assay: Drug discrimination effect in CD Albino rat assessed as percent of rat choosing cocaine lever at 0.1 mg/kg, ip; format: functional; details: route intraperitoneal
Mus musculus [43] = assay: Activity in CD1 mouse assessed as hyperactivity at 1 mg/kg, ip after 4 hrs; format: functional, organism-based; parameters: dose 1 mg/kg
Mus musculus [44] = assay: Locomotor activity in CD1 mouse assessed as stimulation at 0.1 mg/kg, ip after 4 hrs relative to control; format: functional; details: route intraperitoneal
Mus musculus [45] = assay: Locomotor activity in CD1 mouse assessed as stimulation at 0.03 mg/kg, ip after 2 hrs relative to control; format: functional; details: route intraperitoneal
Mus musculus [46] = assay: Locomotor activity in CD1 mouse assessed as stimulation at 0.3 mg/kg, ip after 2 hrs relative to control; format: functional; details: route intraperitoneal
Mus musculus [47] = assay: Locomotor activity in CD1 mouse assessed as stimulation at 0.1 mg/kg, ip after 1 hr relative to control; format: functional; details: route intraperitoneal

COC(=O)[C@@H]1C2CCC(C[C@H]1c1ccc(Br)cc1)N2C (stereo not given in full)
Activity (Mus musculus [1]): 457%
Activity (Mus musculus [2]): Active
Activity (Mus musculus [3]): 686%
Activity (Mus musculus [4]): Active
Activity (Rattus norvegicus [5]): 13%
Activity (Mus musculus [6]): Active
Activity (Mus musculus [7]): 861%
Activity (Mus musculus [8]): Active
Activity (Mus musculus [9]): -26%
Activity (Mus musculus [10]): 35%
Activity (Mus musculus [11]): 353%
IC50 [12]: 1.7 nM
Activity (Rattus norvegicus [13]): 50%
Activity (Mus musculus [14]): 781%
Activity (Mus musculus [15]): -12%
Activity (Mus musculus [16]): Active
Activity (Mus musculus [17]): 1275%
Activity (Mus musculus [18]): 88%
ED50 (Mus musculus [19]): 6.6 mg/kg
ED50 (Rattus norvegicus [20]): 2.98 mg/kg
Activity (Mus musculus [21]): 883%
Activity (Mus musculus [22]): 60%
Activity (Mus musculus [23]): -56%
Activity (Mus musculus [24]): 100%
Activity (Mus musculus [25]): 518%
IC50 [26]: 84 nM
Ki [26]: 20.6 nM
Activity (Mus musculus [27]): 109%
Activity (Rattus norvegicus [28]): 13%
Activity (Rattus norvegicus [29]): 88%

COC(=O)[C@@H]1C2CCC(C[C@@H]1c1ccc(Br)cc1)N2C (stereo not given in full)
Activity (Mus musculus [2]): Active
Activity (Rattus norvegicus [30]): 50%
Activity (Mus musculus [31]): 834%
Activity (Mus musculus [32]): -30%
Activity (Mus musculus [8]): Active
Activity (Mus musculus [9]): 35%
Activity (Mus musculus [33]): Active
Activity (Mus musculus [34]): Active
Activity (Mus musculus [10]): 258%
Activity (Mus musculus [35]): 869%
IC50 [12]: 1.7 nM
Activity (Mus musculus [36]): 29%
Activity (Mus musculus [15]): 656%
Activity (Mus musculus [37]): 259%
Activity (Mus musculus [16]): Active
Activity (Mus musculus [38]): 81%
Activity (Mus musculus [39]): -43%
ED50 (Mus musculus [19]): 0.1 mg/kg
ED50 (Rattus norvegicus [20]): 0.17 mg/kg
Activity (Mus musculus [23]): 302%
Activity (Rattus norvegicus [40]): 100%
Activity (Mus musculus [41]): 9%
Activity (Rattus norvegicus [42]): 14%
Activity (Mus musculus [43]): Active
IC50 [26]: 10.6 nM
Ki [26]: 0.96 nM
Activity (Mus musculus [44]): 116%
Activity (Mus musculus [45]): -39%
Activity (Mus musculus [46]): 598%
Activity (Mus musculus [47]): -38%

From ChEMBL document CHEMBL1149262, “Monoamine transporter binding, locomotor activity, and drug discrimination properties of 3-(4-substituted-phenyl)tropane-2-carboxylic acid methyl ester isomers” (J Med Chem, 2004)
